Results from article PMC10044245, “Comparative Evaluation of Existing and Rationally Designed Novel Antimicrobial Peptides for Treatment of Skin and Soft Tissue Infections” (Antibiotics, 2023).
≈ marks a conversion by molar mass, not a printed value. Where a SMILES comes first, the peptide text is derived from it.

Key:
K. pneumonia = assay: microbe, parasite or virus in culture; assay type: cell-based, Klebsiella pneumoniae
Description: (§1) Quantification of the antimicrobial resistance against various AMPs was carried out by measuring the bacterial growth in the presence of peptides at serial dilutes in 96 well plates in a microplate (96-well plate) reader Infinite® M200 PRO Multimode Microplate Reader (Tecan, Maennedorf, Switzerland) according to our recent reports. All bacterial strains were incubated at 32 °C for 13–18 h at 200 rpm. Optical density measurements (λ = 550 nm) were taken automatically at 10 min intervals. Antimicrobial resistance activity was quantified as the minimum inhibitory concentration (MIC)—the lowest concentration of a peptide which prevents growth of bacterial cells.

[1] = tested on: fresh human blood (red blood cell lysis); assay: Hemolysis assay; assay type: cell-based; settings: for hemolysis ratio (HR): red cells of human, 1 h
Description: A hemolysis test was performed to assess the hemocompatibility of the peptides. Blood from healthy donors was collected in Monovette vacutainers containing Ethylenediamine tetra-acetic acid (EDTA). Blood was diluted with 0.9% sodium chloride solution supplemented with 10 U/mL heparin (4:5 ratio by volume). Peptides were added to 1.5 mL vials containing fresh 0.49 mL PBS and incubated at 37 °C and 5% CO2 for 30 min, and 10 μL of diluted blood was added to each vial and incubated at 37 °C and 5% CO2 for 1 h. PBS was used as a negative control and deionized water was used as a positive control. After incubation tubes were centrifuged at 3000 rpm for 5 min, the supernatants were collected, and the absorbance was measured at a wavelength of 545 nm in a microplate reader Tecan Infinite® 200 PRO (Tecan Group Ltd., Mannedorf, Switzerland).
The hemolytic ratio (HR) was calculated by the following equation: HR (%)=(Abs(sample)−Abs(negative control))/(Abs (positive control−Abs(negative control))×100%

P. aeruginosa = assay: microbe, parasite or virus in culture; assay type: cell-based, Pseudomonas aeruginosa
Description: as §1

S. aureus = assay: microbe, parasite or virus in culture; assay type: cell-based, Staphylococcus aureus
Description: as §1

[2] = tested on: BALB/c 3T3 murine fibroblast cell line; assay: Cytotoxicity, neutral red uptake assay; assay type: cell-based
Description: (§2) The BALB/c 3T3 murine fibroblast cell line was obtained from ATCC (American Type Culture Collection, Manassas, VA, USA). Primary human dermal fibroblasts were isolated by enzymatic digestion from skin biopsies in the Laboratory of Bioanalytical and Biodosimetry Methods, University of Latvia, in accordance with the approval of the Committee of Research Ethics of the Institute of Cardiology and Regenerative Medicine, University of Latvia. Cells were propagated in DMEM medium (Sigma, Irvine, UK), supplemented with 1% penicillin (100 U/mL)–streptomycin (100 μg/mL), and 10% calf serum (Sigma, St. Louis, MO, USA) for Balb/c 3T3 cell line and fetal bovine serum (Sigma, St. Louis, MO, USA) for primary dermal fibroblasts. All cultivations were performed in a humidified 5% CO2 atmosphere at 37 °C.
(§3) The cytotoxicity of the peptides was tested in the BALB/c3T3 cell line and primary dermal fibroblasts by the neutral red (NR) uptake assay. Cells were seeded in 96-well plates at a density of 5 × 10^3 cells per well. After 24 h of incubation, peptides in a concentration range of 3.9 to 500 μg/mL were added. Dilutions were made in a cell cultivation medium. Cultivation in the presence of extracts was performed for 48 h. Afterwards, plates were washed with phosphate-buffered saline (PBS) (Sigma, Irvine, UK), and a 25 µg/mL NR solution (Sigma, Irvine, UK) diluted in 5%-fetal-calf-serum-containing-media was added. After 3 h, incubation in a humidified 5% CO2 atmosphere at 37 °C, the plate was washed with PBS, and the NR taken up by viable cells was extracted using desorbing fixative (50% ethanol/1% acetic acid/49% water). Absorbance at 540 nm was measured using a microplate reader Tecan Infinite® 200 PRO (Tecan Group Ltd., Mannedorf, Switzerland). Cytotoxicity was expressed as a concentration-dependent reduction in the uptake of NR, compared to the untreated controls and calculated using the following equation: Cell viability (%)=Abs540nm(treatment)−Abs540nm(background)/Abs540nm(untreated control)−Abs540nm(background)×100%

C. acnes = assay: microbe, parasite or virus in culture; assay type: cell-based, Cutibacterium acnes
Description: as §1

E. faecium = assay: microbe, parasite or virus in culture; assay type: cell-based, Enterococcus faecium
Description: as §1

E. coli = assay: microbe, parasite or virus in culture; assay type: cell-based, Escherichia coli
Description: as §1

[3] = tested on: primary human dermal fibroblasts; assay type: cell-based; settings: 48 h
Description: as §2, §3

Row | Structure (SMILES) | MIC C. acnes (C. acnes) [µg/mL] | MIC K. pneumonia (K. pneumonia) [µg/mL] | MIC P. aeruginosa (P. aeruginosa) [µg/mL] | MIC S. aureus (S. aureus) [µg/mL] | MIC E. faecium (E. faecium) [µg/mL] | MIC E. coli (E. coli) [µg/mL] | Therapeutic Index K. pneumonia (K. pneumonia) | Therapeutic Index P. aeruginosa (P. aeruginosa) | Therapeutic Index S. aureus (S. aureus) | Therapeutic Index C. acnes (C. acnes) | Therapeutic Index E. faecium (E. faecium) | Therapeutic Index E. coli (E. coli) | IC50, viability of human primary dermal fibroblasts [3] [µg/mL] | IC50, viability of Balb/c 3T3 cells ([2]; 48 h) [µg/mL] | hemolytic activity [1] | also measured
1 | CC(C)C[C@H](NC(=O)[C@H](CS)NC(=O)[C@H](Cc1ccccc1)NC(=O)[C@@H](N)CCCCN)C(=O)N[C@@H](CCCCN)C(=O)N[C@@H](Cc1ccccc1)C(=O)N[C@@H](CS)C(=O)N[C@@H](Cc1ccccc1)C(=O)N[C@@H](CCCCN)C(=O)NCC(=O)N[C@@H](Cc1ccccc1)C(=O)N[C@@H](CS)C(=O)N[C@@H](Cc1ccccc1)C(=O)N[C@@H](CCCCN)C(=O)N[C@@H](C)C(=O)N[C@@H](CS)C(=O)NCC(=O)N[C@@H](CCCCN)C(=O)O [Peptide R11] (H-KFCLKFCFKGFCFKACGK-OH; N-terminus and C-terminus assumed) | 0.3 (≈ 0.142 µM) | – | – | – | – | – | 1.7 | 1.7 | 6.7 | 356.7 | 6.7 | 0.9 | – | – | – | hemolysis ratio (HR) ([1]; 32 μg/mL): below 2%; hemolysis ratio (HR) ([1]; 64 μg/mL): 2.85–7.03%; concentrations not cytotoxic ([2]; Balb/c 3T3, neutral red uptake, 48 h, tested 3.9–500 μg/mL): 3.9 µg/mL
2 | CC(C)C[C@H](NC(=O)[C@H](C)NC(=O)[C@H](CCCCN)NC(=O)[C@H](CC(C)C)NC(=O)[C@H](C)NC(=O)[C@H](CCCCN)NC(=O)[C@H](CC(C)C)NC(=O)[C@H](CC(C)C)NC(=O)[C@H](C)NC(=O)[C@H](CCCCN)NC(=O)[C@H](CC(C)C)NC(=O)[C@H](C)NC(=O)[C@H](CCCCN)NC(=O)[C@H](C)NC(=O)[C@@H](N)Cc1ccccc1)C(=O)O [Oligo10] (H-FAKALKALLKALKAL-OH) | 2.0 (≈ 1.25 µM) | 63.0 (≈ 39.4 µM) | 63.0 (≈ 39.4 µM) | 4.0 (≈ 2.5 µM) | 16.0 (≈ 10 µM) | 16.0 (≈ 10 µM) | – | – | – | – | – | – | 241.54 | 218.21 | – | concentration with mild hemolytic activity [1]: 16 µg/mL

Second part, led by results:

Row | MIC C. acnes (C. acnes) [µg/mL] | MIC K. pneumonia (K. pneumonia) [µg/mL] | MIC P. aeruginosa (P. aeruginosa) [µg/mL] | MIC S. aureus (S. aureus) [µg/mL] | MIC E. faecium (E. faecium) [µg/mL] | MIC E. coli (E. coli) [µg/mL] | Structure (SMILES) | Therapeutic Index K. pneumonia (K. pneumonia) | Therapeutic Index P. aeruginosa (P. aeruginosa) | Therapeutic Index S. aureus (S. aureus) | Therapeutic Index C. acnes (C. acnes) | Therapeutic Index E. faecium (E. faecium) | Therapeutic Index E. coli (E. coli) | IC50, viability of human primary dermal fibroblasts [3] [µg/mL] | IC50, viability of Balb/c 3T3 cells ([2]; 48 h) [µg/mL] | hemolytic activity [1] | also measured
3 | 0.5 (≈ 0.182 µM) | 8.0 (≈ 2.91 µM) | 2.0 (≈ 0.729 µM) | 4.0 (≈ 1.46 µM) | 4.0 (≈ 1.46 µM) | – | CC[C@H](C)[C@H](NC(=O)[C@H](CCCCN)NC(=O)[C@@H](N)CCCCN)C(=O)N[C@@H](C)C(=O)N[C@@H](CCCCN)C(=O)N[C@@H](CCCCN)C(=O)N[C@@H](Cc1ccccc1)C(=O)N[C@@H](Cc1c[nH]c2ccccc12)C(=O)N[C@@H](CCCCN)C(=O)N[C@@H](CCCCN)C(=O)N[C@@H](Cc1ccccc1)C(=O)N[C@@H](Cc1c[nH]c2ccccc12)C(=O)N[C@@H](CCCCN)C(=O)N[C@@H](Cc1ccccc1)C(=O)N[C@@H](Cc1c[nH]c2ccccc12)C(=O)N[C@@H](CCCCN)C(=O)N[C@H](C(=O)N[C@@H](Cc1ccccc1)C(=O)N[C@@H](CCCCN)C(=O)N[C@@H](CCCCN)C(=O)O)[C@@H](C)CC [Peptide R10] (H-KKIAKKFWKKFWKFWKIFKK-OH) | 4.77 | 19.1 | 9.55 | 76.38 | 9.55 | 19.1 | 38.19 | 86.99 | strong hemolytic activity | –
4 | 2.0 (≈ 0.699 µM) | 4.0 (≈ 1.4 µM) | 8.0 (≈ 2.8 µM) | 8.0 (≈ 2.8 µM) | 16.0 (≈ 5.6 µM) | 8.0 (≈ 2.8 µM) | CC[C@H](C)[C@H](NC(=O)[C@H](Cc1ccccc1)NC(=O)[C@H](CCCCN)NC(=O)[C@H](CCCCN)NC(=O)[C@H](Cc1ccccc1)NC(=O)[C@H](CCCCN)NC(=O)[C@H](CCCCN)NC(=O)[C@H](C)NC(=O)[C@H](Cc1ccccc1)NC(=O)[C@H](CCCCN)NC(=O)[C@H](CCCCN)NC(=O)[C@@H](NC(=O)[C@@H](N)Cc1ccccc1)[C@@H](C)CC)C(=O)N[C@@H](CCCCN)C(=O)N[C@@H](CCCCN)C(=O)N[C@@H](Cc1ccccc1)C(=O)N[C@@H](C)C(=O)N[C@@H](CCCCN)C(=O)N[C@@H](Cc1ccccc1)C(=O)N[C@@H](C)C(=O)N[C@@H](Cc1ccccc1)C(=O)N[C@@H](C)C(=O)N[C@@H](Cc1ccccc1)C(=O)O [Peptide R1] (H-FIKKFAKKFKKFIKKFAKFAFAF-OH; N-terminus and C-terminus assumed) | – | – | – | 64.04 | – | – | 128.07 | 63.84 | – | decrease of cell viability ([2]; Balb/c 3T3, at 15.63 μg/mL and above): more than 62%
5 | 1.0 (≈ 0.303 µM) | 4.0 (≈ 1.21 µM) | 4.0 (≈ 1.21 µM) | 8.0 (≈ 2.42 µM) | 8.0 (≈ 2.42 µM) | 16.0 (≈ 4.84 µM) | CC[C@H](C)[C@H](NC(=O)[C@H](CCCCN)NC(=O)[C@@H](N)CCCCN)C(=O)N[C@@H](C)C(=O)N[C@@H](CCCCN)C(=O)N[C@@H](CCCCN)C(=O)N[C@@H](Cc1ccccc1)C(=O)N[C@@H](Cc1c[nH]c2ccccc12)C(=O)N[C@@H](CCCCN)C(=O)N[C@@H](CCCCN)C(=O)N[C@@H](Cc1ccccc1)C(=O)N[C@@H](Cc1c[nH]c2ccccc12)C(=O)N[C@@H](CCCCN)C(=O)N[C@@H](Cc1ccccc1)C(=O)N[C@@H](Cc1c[nH]c2ccccc12)C(=O)N1CCC[C@H]1C(=O)N[C@@H](CCCCN)C(=O)N[C@@H](Cc1ccccc1)C(=O)N[C@@H](Cc1c[nH]c2ccccc12)C(=O)N[C@@H](CCCCN)C(=O)N[C@H](C(=O)N[C@@H](Cc1ccccc1)C(=O)N[C@@H](CCCCN)C(=O)N[C@@H](CCCCN)C(=O)O)[C@@H](C)CC [Peptide R14] (H-KKIAKKFWKKFWKFWPKFWKIFKK-OH) | 8.8 | 8.8 | 4.4 | – | 4.4 | 2.2 | – | 21.07 | strong hemolytic activity | hemolysis ratio (HR) [1]: > 5%
